In patent US6451814B1, “Heterocyclic β-3 adrenergic receptor agonists” (Wyeth, priority 2000, dated 2002):
Several values for one entry are separate records, joined by “and”; a condition that tells them apart may be missing. Identical values can stand only once. Like-named read-outs stand apart in the source and are kept apart here.

Molecular target: T1, human β3-adrenergic receptor (Homo sapiens, UniProt P13945)
T1 construct: Full length β3 AR clones (402 amino acids) containing the last 6 amino acids of hβ3—AR are prepared; expressed in transfected cells; host or cells: CHO cells
T1 sequence (P13945 whole entry): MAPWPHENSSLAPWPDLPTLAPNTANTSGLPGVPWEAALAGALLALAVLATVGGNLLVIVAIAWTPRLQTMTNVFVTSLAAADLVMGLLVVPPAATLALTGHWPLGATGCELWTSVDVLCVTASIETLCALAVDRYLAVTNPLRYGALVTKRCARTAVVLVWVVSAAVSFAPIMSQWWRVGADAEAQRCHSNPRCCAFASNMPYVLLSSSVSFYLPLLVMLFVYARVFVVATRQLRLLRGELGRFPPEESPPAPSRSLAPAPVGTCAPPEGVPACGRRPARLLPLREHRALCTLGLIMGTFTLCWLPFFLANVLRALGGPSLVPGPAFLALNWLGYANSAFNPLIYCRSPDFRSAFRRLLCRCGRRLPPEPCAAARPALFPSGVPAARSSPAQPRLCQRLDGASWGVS
Experiment: cAMP response (SPA kit) in CHO cells transfected with human β3 adrenergic receptor
Type: cell-based
Details: for EC50: CHO cells expressing human β3-AR, 10^-9 M to 10^-5 M, 30 min at 37° C., cAMP by SPA; for IA(β3): maximal response of compound compared to maximal response of isoproterenol at 10^-5 M, CHO cells, human β3-AR

| SMILES | EC50 (read-out: EC50(β3)) | IA(β3) | EC50 (EC50(β3, μM)) [µM] |
| --- | --- | --- | --- |
| O=C(CCNC(=O)N1CCC(Nc2ccc(CCNC[C@H](O)COc3ccc(O)cc3)cc2)CC1)Nc1ccc(F)cc1 [Example 81, 4-(4-{2-[(2S)-2-Hydroxy-3-(4-hydroxy-phenoxy)-propylamino]-ethyl}-phenylamino)-piperidine-1-carboxylic Acid [2-(4-fluoro-phenylcarbamoyl)-ethyl]-amide] | 0.021 µM | 1 | – |
| CN(C(=O)CCNC(=O)N1CCC(Nc2ccc(CCNC[C@H](O)COc3ccc(O)cc3)cc2)CC1)c1ccc(Cl)cc1 [Example 82, 4-(4-{2-[(2S)-2-Hydroxy-3-(4-hydroxy-phenoxy)-propylamino]-ethyl}-phenylamino)-piperidine-1-carboxylic Acid {2-[(4-chloro-phenyl)-methyl-carbamoyl]-ethyl}-amide] | 0.053 µM | 0.94 | – |
| O=C(NCc1ccc(O)cc1F)N1CCC(Nc2ccc(CCNCC(O)COc3ccc(O)cc3)cc2)CC1 (stereo not shown) [Example 83, 4-(4-{2-[2-Hydroxy-3-(4-hydroxy-phenoxy)-propylamino]-ethyl}-phenylamino)-piperidine-1-carboxylic Acid 2-fluoro-4-hydroxy-benzylamide] | – | 0.88 | – |
| CN(C)C(=O)Oc1ccc(CNC(=O)N2CCC(Nc3ccc(CCNC[C@H](O)COc4ccc(O)cc4)cc3)CC2)c(F)c1 [Example 84, Dimethyl-carbamic Acid 3-fluoro-4-({[4-(4-{2-[(2S)-2-hydroxy-3-(4-hydroxy-phenoxy)-propylamino]-ethyl}-phenlamino)-piperidine-1-carbonyl]-amino}-methyl)-phenyl Ester] | – | 0.75 | 0.096 |
| O=C(NCc1ccc(F)cc1)N1CCC(Nc2ccc(CCNC[C@H](O)COc3cccc(O)c3)cc2)CC1 [Example 85, 4-(4-{2-[(2S)-2-Hydroxy-3-(3-hydroxy-phenoxy)-propylamino]-ethyl}-phenylamino)-piperidine-1-carboxylic Acid 4-fluoro-benzylamide] | 0.003 µM | 0.82 | – |
| O=C(O)COc1ccc(CNC(=O)N2CCC(Nc3ccc(CCNC[C@H](O)COc4ccc(O)cc4)cc3)CC2)c(F)c1 [Example 86, [3-Fluoro-4-[[[[4-[[4-[2-[[(S)-2-hydroxy-3-(4-hydroxyphenoxy)propyl]amino]ethyl]phenyl]amino]-1-piperidinyl]carbonyl]amino]methyl]phenoxy]acetic Acid] | 0.127 µM | 1.1 | – |
| O=C(NCc1ccc(O)cc1F)N1CCC(Nc2ccc(CCNC[C@H](O)COc3cccc(O)c3)cc2)CC1 [Example 87, 4-(4-{2-[(2S)-2-Hydroxy-3-(3-hydroxy-phenoxy)-propylamino]-ethyl}-phenylamino)-piperidine-1-carboxylic Acid 2-fluoro-4-hydroxy-benzylamide] | 0.004 µM | 0.84 | – |
| O=C(NCCc1cccc(F)c1)N1CCC(Nc2ccc(CCNC[C@H](O)COc3ccc(O)cc3)cc2)CC1 [Example 88, 4-(4-{2-[(2S)-2-Hydroxy-3-(4-hydroxy-phenoxy)-propylamino]-ethyl}-phenylamino)-piperidine-1-carboxylic Acid [2-(3-fluoro-phenyl)-ethyl]-amide] | 0.021 µM | 0.81 | – |
| CCN(CC)C(=O)CCNC(=O)N1CCC(Nc2ccc(CCNC[C@H](O)COc3ccc(O)cc3)cc2)CC1 [Example 89, 4-(4-{2-[(2S)-2-Hydroxy-3-(4-hydroxy-phenoxy)-propylamino]-ethyl}-phenylamino)-piperidine-1-carboxylic Acid (2-diethylcarbamoyl-ethyl)-amide] | 0.093 µM | 0.83 | – |
| O=C(CCNC(=O)N1CCC(Nc2ccc(CCNC[C@H](O)COc3ccc(O)cc3)cc2)CC1)N1CCOCC1 [Example 90, 4-(4-{2-[(2S)-2-Hydroxy-3-(4-hydroxy-phenoxy)-propylamino]-ethyl}-phenylamino)-piperidine-1-carboxylic Acid (3-morpholin-4-yl-3-oxo-propyl)-amide] | 0.077 µM | 0.73 | – |
| CCCCCCCCNC(=O)N1CCC(C(=O)N2CCC(Nc3ccc(CCNC[C@H](O)COc4ccc(O)cc4)cc3)CC2)CC1 [Example 92, 4-[4-(4-{2-[(2S)-2-Hydroxy-3-(4-hydroxy-phenoxy)-propylamino]-ethyl}-phenylamino)-piperidine-1-carbonyl]-piperidine-1-carboxylic Acidoctylamide] | 0.01 µM | 0.92 | – |
| COc1ccc2[nH]c(C(=O)N3CCC(Nc4ccc(CCNCC(O)COc5ccc(O)cc5)cc4)CC3)cc2c1 (stereo not shown) [Example 94, [4-(4-{2-[2-Hydroxy-3-(4-hydroxy-phenoxy)-propylamino]-ethyl}-phenylamino)-piperidin-1-yl]-(5-methoxy-1H-indol-2-yl)-methanone] | 0.01 µM and 0.054 µM | 0.59 and 0.78 | – |
| O=C(c1cc2cc(Br)ccc2[nH]1)N1CCC(Nc2ccc(CCNC[C@H](O)COc3ccc(O)cc3)cc2)CC1 [Example 96, (5-Bromo-1H-indol-2-yl)-[4-(4-{2-[(2S)-2-hydroxy-3-(4-hydroxy-phenoxy)-propylamino]-ethyl}-phenylamino)-piperidin-1-yl]-methanone] | 0.306 µM | 0.83 | – |
| COc1c(C(=O)N2CCC(Nc3ccc(CCNC[C@H](O)COc4ccc(O)cc4)cc3)CC2)sc2ccccc12 [Example 97, [4-(4-{2-[(2S)-2-Hydroxy-3-(4-hydroxy-phenoxy)-propylamino]-ethyl}-phenylamino)-piperidin-1-yl]-(3-methoxy-benzo[b]thiophen-2-yl)-methanone] | 0.034 µM | 0.79 | – |

The next lines start with results.

| EC50 (read-out: EC50(β3)) | IA(β3) | SMILES | EC50 (EC50(β3, μM)) [µM] |
| --- | --- | --- | --- |
| 0.016 µM | 0.98 | Cc1ccsc1C(=O)N1CCC(Nc2ccc(CCNC[C@H](O)COc3ccc(O)cc3)cc2)CC1 [Example 100, [4-(4-{2-[(2S)-2-Hydroxy-3-(4-hydroxy-phenoxy)-propylamino]-ethyl}-phenylamino)-piperidin-1-yl]-(3-methyl-thiophen-2-yl)-methanone] | – |
| 0.01 µM | 0.63 | Cc1ccsc1C(=O)N1CCC(Nc2ccc(CCNC[C@H](O)COc3cccc4[nH]c(=O)[nH]c34)cc2)CC1 [Example 101, 4-[(2S)-2-Hydroxy-3-(2-{4-[1-(3-methyl-thiophene-2-carbonyl)-piperidin-4-ylamino]-phenyl}-ethylamino)-propoxy]-1,3-dihydro-benzoimidazol-2-one] | – |
| 0.009 µM | 0.95 | O=C(c1n[nH]c2ccccc12)N1CCC(Nc2ccc(CCNC[C@H](O)COc3ccc(O)cc3)cc2)CC1 [Example 102, [4-(4-{2-[(2S)-2-Hydroxy-3-(4-hydroxy-phenoxy)-propylamino]-ethyl}-phenylamino)-piperidin-1-yl]-(1H-indazol-3-yl)-methanone] | – |
| 0.037 µM | 1 | CS(=O)(=O)Nc1cc([C@@H](O)CNCCc2ccc(NC3CCN(C(=O)c4ccc(C(=O)O)cc4)CC3)cc2)ccc1O [Example 105, 4-[4-(4-{2-[(2R)-2-Hydroxy-2-(4-hydroxy-3-methanesulfonylamino-phenyl)-ethylamino]-ethyl}-phenylamino)-piperidine-1-carbonyl]-benzoic Acid] | – |
| 0.04 µM | 0.92 | Cc1sccc1C(=O)N1CCC(S(=O)(=O)c2ccc(CCNC[C@H](O)COc3ccc(O)cc3)cc2)CC1 [Example 107, [4-(4-{2-[(2S)-2-Hydroxy-3-(4-hydroxy-phenoxy)-propylamino]-ethyl}benenesulfonyl)-piperidin-1-yl]-(2-methyl-thiophen-3-yl)-methanone] | – |
| 0.007 µM | 1.08 | CCCCCCNC(=O)Nc1ccc(S(=O)(=O)N2CCC(Nc3ccc(CCNC[C@H](O)COc4ccc(O)cc4)cc3)CC2)cc1 [Example 108, 1-Hexyl-3-{4-[4-(4-{2-[(2S)-2-hydroxy-3-(4-hydroxy-phenoxy)-propylamino]-ethyl}-phenylamino)-piperidine-1-sulfonyl]-phenyl}-urea] | – |
| 0.086 µM | 0.89 | Cc1ccc(S(=O)(=O)N2CCC(Nc3ccc(CCNC[C@H](O)COc4ccc(O)cc4)cc3)CC2)cc1 [Example 112, 4-[(2S)-2-Hydroxy-3-(2-{4-[1-(toluene-4-sulfonyl)-piperidin-4-ylamino]-phenyl}-ethylamino)-propoxy]-phenol] | – |
| 0.033 µM | 1.1 | CC(=O)Nc1ccc(S(=O)(=O)N2CCC(Nc3ccc(CCNC[C@H](O)COc4ccc(O)cc4)cc3)CC2)cc1 [Example 114, N-{4-[4-(4-{2-[(2S)-2-Hydroxy-3-(4-hydroxy-phenoxy)-propylamino]-ethyl}-phenylamino)-piperidine-1-sulfonyl]-phenyl}-acetamide] | – |
| 0.013 µM | 0.97 | CC(=O)Nc1nc(C)c(S(=O)(=O)N2CCC(Nc3ccc(CCNC[C@H](O)c4ccc(O)c(NS(C)(=O)=O)c4)cc3)CC2)s1 [Example 115, N-(5-{[4-(4-{2-[((2R)-2-hydroxy-2-{4-hydroxy-3-[(methylsulfonyl)amino]phenyl}-ethyl)amino]ethyl}anilino)piperidin-1-yl]sulfonyl}-4-methyl-1,3-thiazol-2-yl)acetamide] | – |
| 0.208 µM | 1.1 | Oc1ccc(OC[C@@H](O)CNCCc2ccc(NC3CCN(c4nc(-c5ccccc5)cs4)CC3)cc2)cc1 [Example 117, 4-[(2S)-2-Hydroxy-3-(2-{4-[1l-(4-phenyl-thiazol-2-yl)-piperidin-4-ylamino]-phenyl}-ethylamino)-propoxy]-phenol] | – |
| 0.022 µM | 0.96 | CS(=O)(=O)Nc1cc([C@@H](O)CNCCc2ccc(NC3CCN(c4nc(-c5ccccc5)cs4)CC3)cc2)ccc1O [Example 118, (R)-N-{2-Hydroxy-5-[1-hydroxy-2-(2-{4-[1-(4-phenyl-thiazol-2-yl)-piperidin-4-ylamino]-phenyl}-ethylamino)-ethyl]-phenyl}-methanesulfonamide] | – |
